Key:
[1] = system: C5 convertase; assay: C5 convertase activity on bio-C3b spheres, C5a measured with ECL assay; assay type: biochemical; settings: for ECL signal (amount of C5a produced by C5 convertase): C5 100 nM, 60 min
Method: The bio-C3b binding to streptavidin was performed in a 2.0 ml micro-centrifuge tube. Two hundred and forty μg of SPHEROTECH beads, 0.3 mm diameter. Streptavidin coated spheres were first washed by centrifugation with 300 μL of 10 mM Tris, pH 8, and then resuspended in 200 μL of 10 mM Tris, pH 8. The spheres were incubated with bio-C3b or C3b at a concentration of 320 nM. Spheres were suspended by gentle shaking at 1350 RPM for 20 minutes at room temperature, and collected by centrifugation at 16 RCF for 10 minutes. The residual supernatant was removed and the beads were then washed to remove residual unbound bio-C3b.
C5 convertase was formed on the spheres by incubating the bio-C3b spheres with a Convertase Solution that included components of the AP, a divalent cation and buffer. The Convertase Solution consisted of Factor D, (10 nM), Factor B (400 nM), and NiCl2 (200 μM) in 10 mM Tris, pH 8.0. The spheres were suspended by gentle shaking at 1350 RPM for 20 minutes at 37° C. The spheres were centrifuged at 16×g (RCF) for 10 minutes, the supernatant is removed, and the spheres are resuspended in 1.2 ml of 10 mM Tris pH 8, 1 mM EDTA to a final concentration of 200 μg/ml.
Formation of C5a was accomplished by incubating C5, and the spheres in a Reaction Solution that included a divalent cation. The Reaction Solution was prepared by transferring to a microplate well: (i) 2 μg of spheres with C5 convertase in 10 μl of the Convertase Solution; (ii) 20 μL of a 500 μM NiCl2 solution; and (iii) 20 μL of a 250 nM solution of C5 (5 pmoles). […] Following the incubation, the reaction was stopped by adding 10 μL of a 500 mM EDTA in 10 mM Tris, pH=8.0; (Total Volume=60 μl).
The amount of C5a in the Reaction Solution was measured with an Elisa-like assay, similar to an ELISA. The neo-epitope anti-C5a antibody, BNJ383, captured soluble C5a, binding it to a well in a microplate. BNJN383 has a high affinity for C5a but a low affinity for C5. The detection reagent was a mouse anti-C5a antibody that binds the C5a captured on the plate, and a SULFO-TAG™ modified anti-mouse secondary antibody that bound the mouse antibody, and generated an ECL signal.
To wells of a high binding 96-well microplate (MSD Catalog No. L15XB-3) was added BNJ383 (0.3 pmoles,) 2 μg/mL in 25 μL of a carbonate-bicarbonate buffer at pH 9.4. The microplate was sealed and incubated at 37′C for 60 minutes. […]
The wells were sealed with a foil seal and incubated in the dark for 30 minutes. […] One hundred and fifty μL of 2×MSD Read Buffer containing tripropylamine as an electron carrier was added to the wells using a negative pipetting technique. The microplate was read on an MSD imager to measure the ECL signal generated by the SULFO-TAG™ affixed to the goat secondary antibody. […]

[2] = biological target: T1, Factor D (Homo sapiens, UniProt P00746); assay: BLI biosensor assay of Factor D cleavage of Factor B, anti-Bb antibody binding; assay type: biochemical
T1 construct: purchased COMPTECH (Tyler Tex.)
T1 sequence (P00746 26-253): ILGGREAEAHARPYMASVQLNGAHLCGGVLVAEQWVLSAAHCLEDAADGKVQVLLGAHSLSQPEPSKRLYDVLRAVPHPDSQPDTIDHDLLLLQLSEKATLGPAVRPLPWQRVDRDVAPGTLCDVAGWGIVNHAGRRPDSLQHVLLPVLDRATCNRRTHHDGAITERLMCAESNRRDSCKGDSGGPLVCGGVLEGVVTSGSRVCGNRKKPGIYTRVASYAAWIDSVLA
Method: All measurements were recorded on an OCTET® RED System set to the advanced quantitation mode. The biosensors were SA-Streptavidin DIP AND READ™ configured to a 96-well microplate format (FORTEBIO). All loading volumes were 200 μl.
Eight streptavidin-coated biosensors were incubated with bio-C3b (10 μg/ml), and Factor B (0.6 μM) in Kinetics Buffer with 1 mM NiCl2 for 6 minutes.
To form bio-C3b/Bb, each biosensor was loaded with a mixture of BioC3b (10 μg/mL), factor B (600 nM) and Ni^2+ (1 mM) in Kinetics Buffer. […] The incubation time was 2 minutes.
The presence of Bb on the biosensor was detected by loading the biosensors with 55 nM of an anti-Bb antibody (Quidel, A227) and 55 nM Goat anti-mouse secondary antibody in Kinetics Buffer. The incubation time was 2 minutes.
From time 0 to about 360 seconds (˜6 minutes), the 269 kDa bio-C3b/Factor B complex formed on the streptavidin coated biosensor. […] From about 360 to about 480 seconds (˜2 minutes), Factor D cleaved Factor B into fragments Ba and Bb. […] The binding of the 300 kDa primary and secondary antibody complex to the Bb fragment was recorded as a positive wavelength shift from about 600 to 720 seconds (˜2 minutes).

Compound: OmCI: tick saliva complement inhibitor, a C5 binding protein
- Effect on convertase activity (in words) ([1]; OmCI 50 nM): essentially no effect
- ECL signal (amount of C5a produced by C5 convertase) ([1]; OmCI 50 nM): 40,000
- drop of ECL signal ([1]; OmCI 100 nM): 8 fold
- ECL signal (amount of C5a produced by C5 convertase) ([1]; OmCI 100 nM): 5000

Compound: O=c1oc(Cl)c(Cl)c2ccccc12 [DCIC, 3,4-Dichloroisocoumarin]
- Effect on Factor D activity (in words) ([2]; DCIC 23 μM and 35 μM): minimal effect
- Inhibition of Factor D (in words) ([2]; DCIC 178 μM, 267 μM and 400 μM): maximally inhibited
